The results in this text go back to US5733867A, “1, 5-benzodiazepine derivatives” (Glaxo Wellcome SpA, priority 1993, dated 1998).

The target of one experiment is CCK-A receptor. The experiment in a line: CCK-receptor binding, CCK-A (Pancreas Assay). Here is the method:
(§1) The greater affinity of the compounds of the invention for the CCK-B receptor over the CCK-A receptor has also been established using the CCK receptor binding assays described by G Dal Forno et al., J. Pharmcol. Exp & Ther. 261, 1056-1063, 1992.
(§2) The binding affinity of the compounds of the invention for the CCK-A receptor (Pancreas Assay) and CCK-B receptor (guinea pig cortex assay) was determined using the procedure of G Dal Forno et al J. Pharmacol. Exp & Ther. 261--1056-1063. The pKi values determined with respresentative compounds of invention were as follows: […]

The target of another experiment is T1, CCK-B receptor (Cavia porcellus, UniProt H0VZC5).
T1 construct: CCK-B receptor (guinea pig cortex assay); from tissue; host or cells: guinea pig cortex
T1 sequence (H0VZC5 1-426): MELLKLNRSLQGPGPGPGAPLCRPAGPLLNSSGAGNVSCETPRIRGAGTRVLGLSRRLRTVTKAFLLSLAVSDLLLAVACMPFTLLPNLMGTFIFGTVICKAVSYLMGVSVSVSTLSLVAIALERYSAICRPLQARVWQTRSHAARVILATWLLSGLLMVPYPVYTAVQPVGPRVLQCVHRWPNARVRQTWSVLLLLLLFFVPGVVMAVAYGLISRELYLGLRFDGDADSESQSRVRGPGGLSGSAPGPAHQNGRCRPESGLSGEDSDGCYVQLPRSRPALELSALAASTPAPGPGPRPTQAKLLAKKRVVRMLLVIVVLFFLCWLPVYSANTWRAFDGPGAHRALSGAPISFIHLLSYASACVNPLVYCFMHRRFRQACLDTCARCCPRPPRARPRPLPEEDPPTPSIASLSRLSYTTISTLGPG
Briefly: CCK-receptor binding, CCK-B (guinea pig cortex assay). The following applies: read-out: pKi CCK-B (converted). The procedure:
as §1, §2

Some results are limits rather than exact numbers.

As for `O=C(Nc1cccc(CN2CCOCC2)c1)NC1C(=O)N(CC23CC4CC(CC(C4)C2)C3)c2ccccc2N(c2ccccc2)C1=O` (single isomer, unassigned; (+)) [Example 1, (+)N-[1-(1-Adamantylmethyl)-2,4-dioxo-5-phenyl-2,3,4,5-tetrahydro-1H-1,5-benzodiazepin-3-yl]-N'-(3-(4-morpholinomethyl)phenyl]-urea], at CCK-A receptor, the “pKi CCK-A” value is 4.70.
On to `CCOC(=O)CCCOc1ccc(NC(=O)NC2C(=O)N(CC34CC5CC(CC(C5)C3)C4)c3ccccc3N(c3ccccc3)C2=O)cc1` (single isomer, unassigned; (+)) [Example 2, (+)N-[1-(1-Adamantylmethyl)-2,4-dioxo-5-phenyl-2,3,4,5-tetrahydro-1H-1,5-benzodiazepin-3yl]-N'-[4-(3-(ethoxycarbonyl)propyl-1-oxo)phenyl]urea], for which the “pKi CCK-A” value at CCK-A receptor was less than 5.0. In addition, the Ki on CCK-B receptor was 5.25 nM.
For `O=CNc1cccc(NC(=O)NC2C(=O)N(CC34CC5CC(CC(C5)C3)C4)c3ccccc3N(c3ccccc3)C2=O)c1` (racemic) [Example 6, N-[1-(1-Adamantylmethyl)-2,4-dioxo-5-phenyl-2,3,4,5-tetrahydro-1H-1,5-benzodiazepin-3-yl]-N'-(3-formylaminophenyl)urea] the same measures were 5.95 and 0.955 nM.
For `O=C(Nc1cccc(NCC(O)CO)c1)NC1C(=O)N(CC23CC4CC(CC(C4)C2)C3)c2ccccc2N(c2ccccc2)C1=O` (single isomer, unassigned; (+)) [Example 5, (+)N-[1-(1-Adamantylmethyl)-2,4-dioxo-5-phenyl-2,3,4,5-tetrahydro-1H-1,5-benzodiazepin-3-yl]N'-[3-(2,3-dihydroxypropylamino)phenyl]urea] the same measures were 5.13 and 0.676 nM.
`CC(=O)Nc1cccc(NC(=O)NC2C(=O)N(CC34CC5CC(CC(C5)C3)C4)c3ccccc3N(c3ccccc3)C2=O)c1` (racemic) [Example 7, N-[1-(1-Adamantylmethyl)-2,4-dioxo-5-phenyl-2,3,4,5-tetrahydro-1H-1,5-benzodiazepin-3-yl]-N'-(3-acetamidophenyl)urea]: the “pKi CCK-A” value on CCK-A receptor stood at 5.82. Further, the Ki at CCK-B receptor was 1.32 nM.
In the same order, the values of `O=C(Nc1cccc(C(=O)OCCN2CCOCC2)c1)NC1C(=O)N(CC23CC4CC(CC(C4)C2)C3)c2ccccc2N(c2ccccc2)C1=O` (single isomer, unassigned; (+)) [Example 4, (+)N-[1-(1-Adamantylmethyl)-2,4-dioxo-5-phenyl-2,3,4,5-tetrahydro-1H-5-benzodiazepin-3-yl]-N'-[3-[2-(4-Morpholino)ethoxycarbonyl]phenyl]urea] are 6.47 and 0.562 nM.
As to `O=C(O)CCCOc1ccc(NC(=O)NC2C(=O)N(CC34CC5CC(CC(C5)C3)C4)c3ccccc3N(c3ccccc3)C2=O)cc1` (single isomer, unassigned; (+)) [Example 3, (+)N-[1-(1-Adamantylmethyl)-2,4-dioxo-5-phenyl-2,3,4,5-tetrahydro-1H-1,5benzodiazepin-3-yl]-N'-[4-(4-oxobutanoic acid)phenyl]urea], the “pKi CCK-A” value at CCK-A receptor is recorded as less than 5.0. Further, the Ki at CCK-B receptor is 3.8 nM.
